Test results published in patent US20240376074A1, “NAMPT INHIBITORS AND USES THEREOF” (Remedy Plan, Inc., priority 2021, published 2024).

Target: T1, NAMPT (Homo sapiens, UniProt P43490)
T1 construct: purchased Abcam ab221819
Test: NAMPT Activity Assay (Abcam #ab221819)
Type: biochemical
Settings: purified NAMPT, percent inhibition from OD450 nm; compound concentration not given
Protocol: The NAMPT Activity Assay (Abcam #ab221819) was performed following manufacturers two-step reaction protocol. Briefly, compounds were added to a clear 96-well plate using the HP D300e Digital Dispenser. Purified NAMPT was added to all wells except the No NAMPT controls. Reaction Mix #1 was added to each well and the plate was incubated at 30*C for 1 hr followed by the addition of Reaction Mix #2. Absorbance was measured at OD450 nm using a multimode plate reader. Readings were recorded for 5 minutes and percent inhibition was calculated using: (1-(OD450 nm compound/OD450nm no drug))*100.

T1 sequence (P43490 whole entry): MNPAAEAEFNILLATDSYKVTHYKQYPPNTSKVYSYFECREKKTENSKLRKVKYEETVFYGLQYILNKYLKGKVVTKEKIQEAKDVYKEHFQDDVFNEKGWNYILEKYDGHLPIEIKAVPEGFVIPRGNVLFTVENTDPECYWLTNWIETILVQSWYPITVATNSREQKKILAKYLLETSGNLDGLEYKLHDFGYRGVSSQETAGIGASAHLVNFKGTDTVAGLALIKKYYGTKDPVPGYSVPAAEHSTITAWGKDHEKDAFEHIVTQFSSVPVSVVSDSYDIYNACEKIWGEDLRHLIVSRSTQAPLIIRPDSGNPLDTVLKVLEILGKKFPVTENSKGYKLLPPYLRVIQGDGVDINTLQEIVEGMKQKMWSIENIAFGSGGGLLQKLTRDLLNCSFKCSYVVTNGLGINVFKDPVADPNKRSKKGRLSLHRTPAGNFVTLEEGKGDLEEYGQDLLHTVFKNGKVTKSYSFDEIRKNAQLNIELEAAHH

NAMPT Inhibition Code* | Structure (SMILES)
C (C = ≥66% inhibition) | CC(=O)N(CC1CC1)c1ccc(-c2ccc(C(=O)NCCCc3cn[nH]c3)cn2)cc1Cl [I-T2269, 6-[4-[Acetyl(cyclopropylmethyl)amino]-3-chloro-phenyl]-N-[3-(1H-pyrazol-4-yl)propyl]pyridine-3-carboxamide]
A (*A = <33% inhibition) | CC(=O)N(CC(F)F)c1ccc(-c2ccc(C(=O)NCc3ccccc3)cn2)cc1Cl [I-T2284, 6-[4-[Acetyl(2,2-difluoroethyl)amino]-3-chloro-phenyl]-N-benzyl-pyridine-3-carboxamide]
A (*A = <33% inhibition) | CC(=O)N(CC1CC1)c1ccc(-c2ccc(C(=O)NCc3cncs3)cn2)cc1Cl [I-T2355, 6-[4-[acetyl(cyclopropylmethyl)amino]-3-chloro-phenyl]-N-(thiazol-5-ylmethyl)pyridine-3-carboxamide]
B (B = >33 to <66% inhibition) | CC(=O)N(CC1CC1)c1ccc(-c2ccc(C(=O)NCc3cccs3)cn2)cc1Cl [I-T2352, 6-[4-[acetyl(cyclopropylmethyl)amino]-3-chloro-phenyl]-N-(2-thienylmethyl)pyridine-3-carboxamide]
C (C = ≥66% inhibition) | CC(=O)N(CC1CC1)c1ccc(-c2ccc(C(=O)NCCc3c[nH]cn3)cn2)cc1Cl [I-T2150, 6-[4-[Acetyl(cyclopropylmethyl)amino]-3-chloro-phenyl]-N-[2-(1H-imidazol-4-yl)ethyl]pyridine-3-carboxamide]
C (C = ≥66% inhibition) | CC(=O)N(CC1CC1)c1ccc(-c2ccc(C(=O)NCCc3cncs3)cn2)cc1Cl [I-T2360, 6-[4-[acetyl(cyclopropylmethyl)amino]-3-chloro-phenyl]-N-(2-thiazol-5-ylethyl)pyridine-3-carboxamide]
A (*A = <33% inhibition) | CC(=O)N(CC1CC1)c1ccc(-c2ccc(C(=O)NCc3ncco3)cn2)cc1Cl [I-T2364, 6-[4-[acetyl(cyclopropylmethyl)amino]-3-chloro-phenyl]-N-(oxazol-2-ylmethyl)pyridine-3-carboxamide]
A (*A = <33% inhibition) | CC(=O)N(CC1CC1)c1ccc(-c2ccc(C(=O)NCC3CCCC34CC4)cn2)cc1Cl (stereo not shown) [I-T2343, 6-[4-[acetyl(cyclopropylmethyl)amino]-3-chloro-phenyl]-N-(spiro[2.4]heptan-7-ylmethyl)pyridine-3-carboxamide]
C (C = ≥66% inhibition) | CC(=O)N(CC1CC1)c1ccc(-c2ccc(C(=O)NCCCc3cn[nH]c3)cn2)cc1C#N [I-T2306, 6-[4-[acetyl(cyclopropylmethyl)amino]-3-cyano-phenyl]-N-[3-(1H-pyrazol-4-yl)propyl]pyridine-3-carboxamide]
C (C = ≥66% inhibition) | CC(=O)N(CC(F)F)c1ccc(-c2ccc(NC(=O)COc3cccnc3)cn2)cc1Cl [I-T2291, N-[6-[4-[acetyl(2,2-difluoroethyl)amino]-3-chloro-phenyl]-3-pyridyl]-2-(3-pyridyloxy)acetamide]
C (C = ≥66% inhibition) | CC(=O)N(CC1CC1)c1ccc(-c2ccc(NC(=O)/C=C/c3cccnc3)cn2)cc1Cl [I-T2124, (E)-N-[6-[4-[acetyl(cyclopropylmethyl)amino]-3-chloro-phenyl]-3-pyridyl]-3-(3-pyridyl)prop-2-enamide]
A (*A = <33% inhibition) | CC(=O)N(CC1CC1)c1ccc(-c2ccc(C(=O)NCC3CCCN(C)C3)cn2)cc1Cl (stereo not shown) [I-T2338, 6-[4-[acetyl(cyclopropylmethyl)amino]-3-chloro-phenyl]-N-[(1-methyl-3-piperidyl)methyl]pyridine-3-carboxamide]
A (*A = <33% inhibition) | CC(=O)N(CC1CC1)c1ccc(-c2ccc(C(=O)NCc3c[nH]cn3)cn2)cc1Cl [I-T2151, 6-[4-[Acetyl(cyclopropylmethyl)amino]-3-chloro-phenyl]-N-(1H-imidazol-4-ylmethyl)pyridine-3-carboxamide]
C (C = ≥66% inhibition) | CC(=O)N(CC1CC1)c1ccc(-c2ccc(C(=O)N3Cc4ccc(F)cc4C3)cn2)cc1Cl [I-T2336, N-[2-chloro-4-[5-(5-fluoroisoindoline-2-carbonyl)-2-pyridyl]phenyl]-N-(cyclopropylmethyl) acetamide]
C (C = ≥66% inhibition) | CC(=O)N(CC1CC1)c1ccc(-c2ccc(C(=O)NCCc3cccnc3)cn2)cc1C(F)(F)F [I-T2303, 6-[4-[Acetyl(cyclopropylmethyl)amino]-3-(trifluoromethyl)phenyl]-N-[2-(3-pyridyl)ethyl]pyridine-3-carboxamide]
C (C = ≥66% inhibition) | CC(=O)N(CC1CC1)c1ccc(-c2ccc(C(=O)NCCc3cccnc3)cn2)cc1F [I-T2301, 6-[4-[acetyl(cyclopropylmethyl)amino]-3-fluoro-phenyl]-N-[2-(3-pyridyl)ethyl]pyridine-3-carboxamide]
C (C = ≥66% inhibition) | CC(=O)N(CC1CC1)c1ccc(-c2ccc(C(=O)NCc3ccccc3)cn2)cc1Cl [I-T2113, 6-[4-[Acetyl(cyclopropylmethyl)amino]-3-chloro-phenyl]-N-benzyl-pyridine-3-carboxamide]
A (*A = <33% inhibition) | CC(=O)N(CC1CC1)c1ccc(-c2ccc(C(=O)NCC3CCCCO3)cn2)cc1Cl (stereo not shown) [I-T2340, 6-[4-[acetyl(cyclopropylmethyl)amino]-3-chloro-phenyl]-N-(tetrahydropyran-2-ylmethyl)pyridine-3-carboxamide]
C (C = ≥66% inhibition) | CC(=O)N(CC1CC1)c1ccc(-c2ccc(NC(=O)Cc3cccnc3)cn2)cc1Cl [I-T2267, N-[6-[4-[acetyl(cyclopropylmethyl)amino]-3-chloro-phenyl]-3-pyridyl]-2-(3-pyridyl)acetamide]
B (B = >33 to <66% inhibition) | CC(=O)N(CC1CC1)c1ccc(-c2ccc(C(=O)NCc3cccnn3)cn2)cc1Cl [I-T2146, 6-[4-[Acetyl(cyclopropylmethyl)amino]-3-chloro-phenyl]-N-(pyridazin-3-ylmethyl)pyridine-3-carboxamide]
C (C = ≥66% inhibition) | CC(=O)N(CC1CC1)c1ccc(-c2ccc(C(=O)NCCc3ccsc3)cn2)cc1Cl [I-T2353, 6-[4-[acetyl(cyclopropylmethyl)amino]-3-chloro-phenyl]-N-[2-(3-thienyl)ethyl]pyridine-3-carboxamide]
C (C = ≥66% inhibition) | CC(=O)N(CC1CC1)c1ccc(-c2ccc(NC(=O)C3CC3c3cccnc3)cn2)cc1Cl (stereo not shown) [I-T2289, N-[6-[4-[acetyl(cyclopropylmethyl)amino]-3-chloro-phenyl]-3-pyridyl]-2-(3-pyridyl)cyclo propanecarboxamide]
C (C = ≥66% inhibition) | CC(=O)N(CC1CC1)c1ccc(-c2ccc(C(=O)NCCc3cccc(F)c3)cn2)cc1Cl [I-T2342, 6-[4-[acetyl(cyclopropylmethyl)amino]-3-chloro-phenyl]-N-[2-(3-fluorophenyl)ethyl]pyridine-3-carboxamide]
C (C = ≥66% inhibition) | CC(=O)N(CC(F)F)c1ccc(-c2ccc(C(=O)NCCc3cccnc3)cn2)cc1Cl [I-T2205, 6-[4-[Acetyl(2,2-difluoroethyl)amino]-3-chloro-phenyl]-N-[2-(3-pyridyl)ethyl]pyridine-3-carboxamide]
A (*A = <33% inhibition) | CC(=O)N(CC1CC1)c1ccc(-c2ccc(C(=O)NCc3cnccn3)cn2)cc1Cl [I-T2154, 6-[4-[Acetyl(cyclopropylmethyl)amino]-3-chloro-phenyl]-N-(pyrazin-2-ylmethyl)pyridine-3-carboxamide]
B (B = >33 to <66% inhibition) | CC(=O)N(CC1CC1)c1ccc(-c2ccc(C(=O)NCc3ccc[nH]3)cn2)cc1Cl [I-T2121, 6-[4-[Acetyl(cyclopropylmethyl)amino]-3-chloro-phenyl]-N-(1H-pyrrol-2-ylmethyl)pyridine-3-carboxamide]
C (C = ≥66% inhibition) | CC(=O)N(CC1CC1)c1ccc(-c2ccc(C(=O)NCc3cccc(F)c3)cn2)cc1Cl [I-T2341, 6-[4-[acetyl(cyclopropylmethyl)amino]-3-chloro-phenyl]-N-[(3-fluorophenyl)methyl]pyridine-3-carboxamide]
C (C = ≥66% inhibition) | CC(=O)N(CC1CC1)c1ccc(-c2ccc(C(=O)NCCc3cn[nH]c3)cn2)cc1Cl [I-T2111, 6-[4-[Acetyl(cyclopropylmethyl)amino]-3-chloro-phenyl]-N-[2-(1H-pyrazol-4-yl)ethyl]pyridine-3-carboxamide]
